Blank lines part the entries; values can stand above or below the compound they belong to. Activity calls are given as the source filed them. The rule behind the calls is not given here.
Key:
Mus musculus [1] = assay: Inhibition of WIN55212-induced catalepsy in male C57Bl/6J mouse at 10 mg/kg, po; format: functional, organism-based
[2] = target: Cannabinoid receptor 1 (Mus musculus) (UniProt P47746); assay: Antagonist activity at CB1R in C57Bl/6Jhsd mouse cortex membrane assessed as inhibition of [35S]GTPgammaS binding incubated for 1 hr by liquid scintillation counter analysis; format: functional, cell membranes; settings: filed as antagonist
Mus musculus [3] = assay: Anti-obese activity in diet-induced obese male C57Bl/6J mouse model assessed as reduction in liver triglyceride content at 1 mg/kg/day, po treated for 24 days; format: functional, organism-based; settings: time 24.0 day
Mus musculus [4] = assay: Anti-obese activity in diet-induced obese male C57Bl/6J mouse model assessed as reduction in hypercholesterolemia at 1 mg/kg/day, po treated for 24 days; format: functional, organism-based; settings: time 24.0 day
[5] = Mutagenicity in Salmonella typhimurium TA100 incubated for 48 to 72 hrs in presence of liver S9 fraction by mini-Ames test; format: toxicity, subcellular; settings: salmonella enterica subsp. enterica serovar typhimurium, time 48-72 hrs
Mus musculus [6] = assay: Anti-obese activity in diet-induced obese male C57Bl/6J mouse model assessed as increase in lean body mass at 1 mg/kg/day, po treated for 24 days by EchoMRI analysis; format: functional, organism-based; settings: time 24.0 day
Mus musculus [7] = assay: Anti-obese activity in diet-induced obese male C57Bl/6J mouse model assessed as reduction in ALP level at 1 mg/kg/day, po treated for 24 days; format: functional, organism-based; settings: time 24.0 day
Mus musculus [8] = assay: Anti-obese activity in diet-induced obese male C57Bl/6J mouse model assessed as reversal of hepatic steatosis at 1 mg/kg/day, po treated for 24 days by H and E staining based analysis; format: functional, organism-based; settings: time 24.0 day
Mus musculus [9] = assay: Inhibition of HU-210-induced hypoactivity in male C57Bl/6J mouse at 1 to 10 mg/kg, po; format: functional, organism-based; settings: dose 1-10 mg/kg
[10] = Toxicity in male C57Bl/6J mouse assessed as CNS-mediated hyperactivity at 1 to 10 mg/kg, po; format: organism-based; settings: in vivo, dose 1-10 mg/kg
Mus musculus [11] = assay: Anti-obese activity in diet-induced obese male C57Bl/6J mouse model assessed as decrease in total body fat at 1 mg/kg/day, po treated for 24 days by EchoMRI analysis; format: functional, organism-based; settings: time 24.0 day
Mus musculus [12] = assay: Anti-obese activity in diet-induced obese male C57Bl/6J mouse model assessed as reversal of hepatocellular damage at 1 mg/kg/day, po treated for 24 days by H and E staining based analysis; format: functional, organism-based; settings: time 24.0 day
[13] = Stability in SIF at pH 6.8 by HPLC analysis; format: physicochemical; settings: simulated gi fluid
Mus musculus [14] = assay: Anti-obese activity in diet-induced obese male C57Bl/6J mouse model assessed as reduction in glucose level in fasting condition at 1 mg/kg/day, po treated for 24 days; format: functional, organism-based; settings: time 24.0 day
[15] = Toxicity in male C57Bl/6J mouse assessed as change in locomotor activity at 1 to 10 mg/kg, po; format: organism-based; settings: in vivo, dose 1-10 mg/kg
Mus musculus [16] = assay: Anti-obese activity in diet-induced obese male C57Bl/6J mouse model assessed as reduction in ALT level at 1 mg/kg/day, po treated for 24 days; format: functional, organism-based; settings: time 24.0 day
Mus musculus [17] = assay: Anti-obese activity in diet-induced obese male C57Bl/6J mouse model assessed as decrease in body weight at 1 mg/kg/day, po treated for 24 days; format: functional, organism-based; settings: time 24.0 day
[18] = Mutagenicity in Salmonella typhimurium TA98 incubated for 48 to 72 hrs in presence of liver S9 fraction by mini-Ames test; format: toxicity, subcellular; settings: salmonella enterica subsp. enterica serovar typhimurium, time 48-72 hrs
[19] = Stability in SGF at pH 1.2 by HPLC analysis; format: physicochemical; settings: simulated gi fluid
Mus musculus [20] = assay: Anti-obese activity in diet-induced obese male C57Bl/6J mouse model assessed as reduction in AST level at 1 mg/kg/day, po treated for 24 days; format: functional, organism-based; settings: time 24.0 day
[21] = Protein binding in mouse brain at 1 uM measured after 5 hrs by equilibrium dialysis method; format: ADME, tissue-based
Mus musculus [22] = assay: Anti-obese activity in diet-induced obese male C57Bl/6J mouse model assessed as reduction in hypertriglyceridemia at 1 mg/kg/day, po treated for 24 days; format: functional, organism-based; settings: time 24.0 day
[23] = target: Cannabinoid receptor 1 (Mus musculus) (UniProt P47746); assay: Inverse agonist activity at CB1R in C57Bl/6Jhsd mouse cortex membrane assessed as inhibition of [35S]GTPgammaS binding incubated for 1 hr by liquid scintillation counter analysis; format: functional, cell membranes; settings: filed as inverse agonist

Cannabinoid receptor 1 (Mus musculus), sequence (P47746 whole entry): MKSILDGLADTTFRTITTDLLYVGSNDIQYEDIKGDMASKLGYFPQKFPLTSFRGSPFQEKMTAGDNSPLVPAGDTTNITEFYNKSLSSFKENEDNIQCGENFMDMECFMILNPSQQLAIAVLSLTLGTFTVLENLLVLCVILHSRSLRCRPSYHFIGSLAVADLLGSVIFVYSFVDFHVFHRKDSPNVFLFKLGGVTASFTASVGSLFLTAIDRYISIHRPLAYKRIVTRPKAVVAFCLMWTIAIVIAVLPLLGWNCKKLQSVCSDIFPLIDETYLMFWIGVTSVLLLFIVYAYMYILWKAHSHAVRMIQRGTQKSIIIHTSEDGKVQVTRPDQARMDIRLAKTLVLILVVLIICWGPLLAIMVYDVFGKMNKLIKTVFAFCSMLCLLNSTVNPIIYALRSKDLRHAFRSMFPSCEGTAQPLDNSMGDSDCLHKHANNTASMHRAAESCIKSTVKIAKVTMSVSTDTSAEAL

SMILES: Cc1c(C(=O)NN2CCCCC2)nn(-c2ccc(Cl)cc2Cl)c1-c1ccc(Cl)cc1
inhibition (Mus musculus [1]): Active

SMILES: CNC(=O)N[C@H]1CCCOc2c1nn(-c1ccccc1Cl)c2-c1ccc(Cl)cc1
Activity [2]: Active; Compound Exhibited As Neutral Antagonist

Stability [13]: Stable | Stability [19]: Stable | PB [21]: Active
SMILES: O=S(=O)(N[C@H]1CCCOc2c1nn(-c1ccccc1Cl)c2-c1ccc(Cl)cc1)c1ccc(Cl)cc1
Activity (Mus musculus [3]): Active | Activity (Mus musculus [4]): Active | Activity [5]: Non-toxic | Activity (Mus musculus [6]): Active | Activity (Mus musculus [7]): Active | Activity (Mus musculus [8]): Active | inhibition (Mus musculus [9]): inactive | Activity [10]: Non-toxic | Activity (Mus musculus [11]): Active | Activity (Mus musculus [12]): Active | Activity (Mus musculus [14]): Active | Activity [15]: Non-toxic | Activity (Mus musculus [16]): Active | Activity (Mus musculus [17]): Active | Activity [2]: Active; Compound Exhibited As Neutral Antagonist | Activity [18]: Non-toxic | Activity (Mus musculus [20]): Active | Activity (Mus musculus [22]): Active

SMILES: CS(=O)(=O)N[C@H]1CCCOc2c1nn(-c1ccccc1Cl)c2-c1ccc(Cl)cc1
Activity [2]: Active; Compound Exhibited As Neutral Antagonist

Activity [23]: Active
SMILES: Cc1ccc(S(=O)(=O)N[C@H]2CCCOc3c2nn(-c2ccccc2Cl)c3-c2ccc(Cl)cc2)cc1
